The values that follow come from patent US9718825B2, “N-(4-(azaindazol-6-yl)-phenyl)-sulfonamides and their use as pharmaceuticals” (priority 2013, dated 2017).

Broadly, the IC50 is the concentration that inhibits the measured activity by half.

For experiment [1], the target named is recombinant human SGK-1 enzyme (Homo sapiens, UniProt O00141). Put plainly: Enzymatic activity assay: SGK-1 substrate peptide phosphorylation (Caliper lab-chip mobility shift). The experiment is classed as biochemical.
Sequence of recombinant human SGK-1 enzyme (O00141 whole entry, looked up): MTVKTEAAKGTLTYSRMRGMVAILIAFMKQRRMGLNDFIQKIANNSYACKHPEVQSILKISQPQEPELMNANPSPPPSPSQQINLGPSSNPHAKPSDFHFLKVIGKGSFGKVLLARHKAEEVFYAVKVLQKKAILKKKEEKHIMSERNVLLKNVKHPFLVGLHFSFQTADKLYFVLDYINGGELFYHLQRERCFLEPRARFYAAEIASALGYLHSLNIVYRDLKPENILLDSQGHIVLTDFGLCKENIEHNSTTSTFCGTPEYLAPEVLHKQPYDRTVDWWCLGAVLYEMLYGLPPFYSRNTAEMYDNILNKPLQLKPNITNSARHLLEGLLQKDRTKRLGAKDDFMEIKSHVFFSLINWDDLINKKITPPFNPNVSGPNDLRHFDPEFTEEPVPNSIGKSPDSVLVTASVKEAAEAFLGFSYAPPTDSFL
For experiment [2], the system named is SGK-1 dependent phosphorylation of GSK3beta in U2OS cells. Kind of experiment: SGK-1 dependent phosphorylation of GSK3beta in U2OS cells overexpressing recombinant SGK-1 and GSK3beta. The experiment is classed as cell-based, human. As to conditions: U2OS cells, 6 h incubation, ratio of phosphorylated GSK3beta to total GSK3beta, read-out: IC50 values for inhibition of SGK-1 dependent phosphorylation of GSK3beta in U2OS cells. The method, then: B) Determination of the Effect on SGK-1 Dependent Phosphorylation of GSK3beta in U2OS Cells
U2OS cells were cultured in 1:1 Dulbecco modified Eagle medium/Ham's F12 and 10% heat-inactivated fetal calf serum (FCS Gold) at 37° C., 7% CO2 and 95% relative humidity. […] Cell suspension mixed with BacMam viruses was seeded in 96 well pCLEAR plates (Greiner) at 3×10^4 cells per well in 250 μl medium. […] 1 μl of a solution of the test compound at 250×final concentration was added. Cells are incubated at 37° C., 7% CO2 and 95% relative humidity. […] After removing the fixation solution, cells were permeabilised by adding 200 μl PBT (0.2% Triton X-100 in PBS) per well for 5 min. After removing PBT, cells were blocked by adding 200 μl of blocking solution (1% bovine serum albumine in PBS) per well. Blocking solution was removed and 50 μl of primary antibody (rabbit anti-phospho-GSK-3beta (Ser9), and mouse anti-GSK-3beta) were added for 1 h. […] After washing the cells 3 times with PBS, 200 μl of PBS were added. Fluorescence signals were measured with the ImageXpress MICRO (Molecular Devices).

Setting [3] is: peptide substrate 1 μM, ATP 10 μM, 60 min at 37° C., read-out: IC50 values for inhibition of SGK-1 enzymatic activity.

Where two headings read alike, the source gives them in different places.

As for `CC(C)COc1nc(-c2ccc(NS(=O)(=O)c3ccccc3F)cc2)nc2[nH]nc(N)c12` [Example 331], the IC50 in experiment [1] (setting [3]) amounted to 290 nM; in experiment [2], 240 nM.

As to `COc1ccc(Cl)c(S(=O)(=O)Nc2ccc(-c3nc(OCC(F)(F)F)c4c(N)n[nH]c4n3)cc2)c1` [Example 194], the results for the IC50 in experiment [1] (setting [3]) and in experiment [2] were 2.3 nM and 100 nM, respectively.

As to `O=S(=O)(Nc1ccc(-c2nc(O[C@H]3CCCC(O)C3)c3cn[nH]c3n2)cc1)c1cc(Cl)ccc1Cl` (stereo partly shown) [Example 85], the IC50 in experiment [1] (setting [3]) is 4.1 nM; in experiment [2] it was 1500 nM.

For the compound `Cc1nc(-c2ccc(NS(=O)(=O)c3cc(F)c(F)cc3Cl)cc2)nc2[nH]nc(N)c12` [Example 170], the IC50 in experiment [1] (setting [3]) was determined as 54 nM; in experiment [2] it was 510 nM.

Take `O=S(=O)(Nc1ccc(-c2nc(Oc3cccnc3)c3cn[nH]c3n2)cc1)c1cc(Cl)ccc1F` [Example 26]: the half-maximal inhibitory concentration (IC50) was less than 1.2 nM in experiment [1] (setting [3]) and 2600 nM in experiment [2].

With `COc1cc(-c2ncc3c(C)n[nH]c3n2)ccc1NS(=O)(=O)c1cc(Cl)ccc1Cl` [Example 534, 2,5-Dichloro-N-[2-methoxy-4-(3-methyl-1H-pyrazolo[3,4-d]pyrimidin-6-yl)-phenyl]-benzenesulfonamide], the IC50 in experiment [1] (read-out: IC50 values for inhibition of SGK-1 enzymatic activity, peptide substrate 1 μM, ATP 10 μM, 60 min at 37° C.) is less than 1.5 nM; in experiment [2] (Homo sapiens) it was 350 nM.

`COCCc1nc(-c2ccc(NS(=O)(=O)c3cc(Cl)c(F)cc3F)cc2)nc2[nH]nc(N)c12` [Example 501]: the IC50 in experiment [1] (setting [3]) was determined as 40 nM; in experiment [2], 450 nM.

Turning to `Cc1ccc(F)c(S(=O)(=O)Nc2ccc(-c3nc(OCCC(N)=O)c4cn[nH]c4n3)cc2)c1` [Example 116], the IC50 in experiment [1] (setting [3]) was less than 1.5 nM; in experiment [2] it was 4800 nM.

As to `COc1ccc(Cl)c(S(=O)(=O)Nc2ccc(-c3nc(OCC4CNCCO4)c4c(C)n[nH]c4n3)cc2)c1` (stereo not shown) [Example 290], the IC50 was determined as 3.3 nM in experiment [1] (setting [3]) and 15 nM in experiment [2].

As to `Cc1ccc(C#N)c(S(=O)(=O)Nc2ccc(-c3nc(CCCCl)c4cn[nH]c4n3)cc2)c1` [Example 146], the IC50 stood at 47 nM in experiment [1] (setting [3]) and 11000 nM in experiment [2].

As to `Cc1nc(-c2ccc(NS(=O)(=O)c3ccccc3F)cc2)nc2[nH]nc(N)c12` [Example 169], the figures for the IC50 in experiment [1] (setting [3]) and in experiment [2] were 110 nM and 250 nM, respectively.

For `O=S(=O)(Nc1ccc(-c2nc(C3CC3)c3cn[nH]c3n2)cc1F)c1cc(Cl)ccc1F` [Example 443], the IC50 in experiment [1] (setting [3]) was found to be 94 nM; in experiment [2], 320 nM.

In the case of `Cc1nc(-c2ccc(NS(=O)(=O)c3cc(F)cc(F)c3Cl)cc2)nc2[nH]nc(N)c12` [Example 479], the IC50 stood at 16 nM in experiment [1] (setting [3]) and 280 nM in experiment [2].

Turning to `Cc1n[nH]c2nc(-c3ccc(NS(=O)(=O)c4cc(Cl)ccc4F)cc3)nc(OCCCN)c12` [Example 209], the values for the IC50 in experiment [1] (setting [3]) and in experiment [2] were less than 1.5 nM and 100 nM, respectively.

On to `Cc1n[nH]c2nc(-c3ccc(NS(=O)(=O)c4cc(F)ccc4F)cc3)nc(OC3CCC(O)CC3)c12` (stereo not shown) [Example 217], for which the values for the IC50 in experiment [1] (setting [3]) and in experiment [2] were 9.1 nM and 190 nM, respectively.

Take `COc1ccc(C#N)c(S(=O)(=O)Nc2ccc(-c3nc(OCC(C)C)c4c(N)n[nH]c4n3)cc2)c1` [Example 336]: the IC50 in experiment [1] (setting [3]) was 5.5 nM; in experiment [2] it was 190 nM.

With `N#Cc1ccc(Cl)cc1S(=O)(=O)Nc1ccc(-c2nc(OCC(F)(F)F)c3c(N)n[nH]c3n2)cc1` [Example 196], the IC50 in experiment [1] (setting [3]) came out at 4.6 nM; in experiment [2] it was 330 nM.

With `Cc1ccc(F)c(S(=O)(=O)Nc2ccc(-c3nc(OCC4CNCCO4)c4c(C)n[nH]c4n3)cc2)c1` (stereo not shown) [Example 288], the IC50 worked out at 2.3 nM in experiment [1] (setting [3]) and 61 nM in experiment [2].

With `O=S(=O)(Nc1ccc(-c2nc(O[C@@H]3CCC[C@H]3O)c3cn[nH]c3n2)cc1)c1cc(Cl)ccc1F` [Example 87], the IC50 came out at 6.8 nM in experiment [1] (setting [3]) and 4100 nM in experiment [2].

For the compound `O=S(=O)(Nc1ccc(-c2nc(N3CCC(O)CC3)c3cn[nH]c3n2)cc1)c1cc(Cl)ccc1Cl` [Example 74], the IC50 was determined as 5.5 nM in experiment [1] (setting [3]) and 1200 nM in experiment [2].

On to `O=S(=O)(Nc1ccc(-c2nc(O[C@H]3CCCC[C@H]3O)c3cn[nH]c3n2)cc1)c1cc(Cl)ccc1Cl` [Example 82], for which the IC50 worked out at 12 nM in experiment [1] (setting [3]) and 2100 nM in experiment [2].

Take `COc1ccc(Cl)c(S(=O)(=O)Nc2ccc(-c3nc(O[C@@H]4CCC(O)C4)c4cn[nH]c4n3)cc2)c1` (stereo partly shown) [Example 91]: the IC50 in experiment [1] (setting [3]) was less than 1.5 nM; in experiment [2], 180 nM.

`Cc1n[nH]c2nc(-c3ccc(NS(=O)(=O)c4ccccc4F)cc3)nc(OCC3CNCCO3)c12` (stereo not shown) [Example 289]: the IC50 in experiment [1] (setting [3]) was 23 nM; in experiment [2] it was 200 nM.

For the compound `Cc1ccc(C#N)c(S(=O)(=O)Nc2ccc(-c3nc(NC4CCC(O)CC4)c4c(C)n[nH]c4n3)cc2)c1` (stereo not shown) [Example 98], the figures for the IC50 in experiment [1] (setting [3]) and in experiment [2] were 1.7 nM and 1700 nM, respectively.

`Cc1nc(-c2ccc(NS(=O)(=O)c3cc(Cl)ccc3C#N)cc2)nc2[nH]nc(N3CCCC4(COC4)C3)c12` [Example 499]: the results for the IC50 in experiment [1] (setting [3]) and in experiment [2] were 8.9 nM and 8800 nM, respectively.

As to `O=S(=O)(Nc1ccc(-c2nc(OCC3CNCCO3)c3cn[nH]c3n2)cc1)c1cc(Cl)ccc1F` (stereo not shown) [Example 305], the IC50 in experiment [1] (setting [3]) is 10 nM; in experiment [2], 89 nM.

Turning to `COc1nc(-c2ccc(NS(=O)(=O)c3cc(C)ccc3C#N)cc2)nc2[nH]ncc12` [Example 135], the IC50 in experiment [1] (setting [3]) turned out to be 12 nM; in experiment [2] it was 1900 nM.

As to `O=S(=O)(Nc1ccc(-c2nc(N3CCC(O)C3)c3cn[nH]c3n2)cc1F)c1cc(Cl)ccc1Cl` (stereo not shown) [Example 438], the IC50 in experiment [1] (setting [3]) came to 85 nM; in experiment [2], 7800 nM.

Regarding `Cc1nc(-c2ccc(NS(=O)(=O)c3cccc(Cl)c3F)cc2)nc2[nH]nc(N)c12` [Example 171], the IC50 in experiment [1] (setting [3]) came out at 40 nM; in experiment [2], 870 nM.

As for `CC(C)(O)CCCOc1nc(-c2ccc(NS(=O)(=O)c3cc(Cl)ccc3F)cc2)nc2[nH]ncc12` [Example 86], the IC50 in experiment [1] (setting [3]) was determined as 11 nM; in experiment [2], 1800 nM.

On to `COc1ccc(Cl)c(S(=O)(=O)Nc2ccc(-c3nc(OC4CCCNC4)c4c(C)n[nH]c4n3)cc2)c1` (stereo not shown) [Example 319], for which the IC50 came out at 4.5 nM in experiment [1] (setting [3]) and 31 nM in experiment [2].

Take `COc1nc(-c2ccc(NS(=O)(=O)c3cc(Cl)ccc3C#N)cc2)nc2[nH]ncc12` [Example 138]: the IC50 in experiment [1] (setting [3]) was 44 nM; in experiment [2] it was 3500 nM.

As for `Cc1n[nH]c2nc(-c3ccc(NS(=O)(=O)c4cc(C#N)ccc4F)cc3)nc(OC3CCC(O)CC3)c12` (stereo not shown) [Example 128], the IC50 is 2.7 nM in experiment [1] (setting [3]) and 3600 nM in experiment [2].

`Cc1n[nH]c2nc(-c3ccc(NS(=O)(=O)c4cc(Cl)ccc4F)cc3)nc(OCC3CNCCO3)c12` (stereo not shown) [Example 291]: the IC50 in experiment [1] (setting [3]) worked out at 2.5 nM; in experiment [2], 76 nM.

On to `O=S(=O)(Nc1ccc(-c2nc(OC3CNC3)c3cn[nH]c3n2)cc1)c1cc(Cl)ccc1Cl` [Example 190], for which the IC50 is 4.7 nM in experiment [1] (setting [3]) and 120 nM in experiment [2].

`COc1ccc(F)c(S(=O)(=O)Nc2ccc(-c3nc(OC)c4cn[nH]c4n3)cc2)c1` [Example 144]: the IC50 in experiment [1] (setting [3]) was 3.5 nM; in experiment [2], 55 nM.

Regarding `COc1ccc(Cl)c(S(=O)(=O)Nc2ccc(-c3nc(OCCCN)c4c(C)n[nH]c4n3)cc2)c1` [Example 212], the IC50 in experiment [1] (setting [3]) is less than 1.5 nM; in experiment [2], 110 nM.

As to `COCCc1nc(-c2ccc(NS(=O)(=O)c3cc(OC)ccc3F)cc2)nc2[nH]nc(N)c12` [Example 504], the results for the IC50 in experiment [1] (setting [3]) and in experiment [2] were 12 nM and 300 nM, respectively.
